Experimental findings from PubChem BioAssay (NCI) are described below.

Among the test systems are 786-0 renal; EKVX NSCLC; IGROV1 ovarian; M14 melanoma; NCI-H522 lung; OVCAR-5 ovarian; RXF 393 renal; SF-268 CNS; SK-MEL-5 melanoma; K-562 leukemia.
What all share (experiment): DTP human tumour cell line panel, 48 h

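These data come from cells grown in 96-well plates and exposed to compound for 48 hours at five concentrations. GI50 = concentration required for 50% inhibition of growth. TGI denotes the concentration required for complete inhibition of growth.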

A word on the GI50: it is the concentration giving 50% growth inhibition. For orientation: TGI means the concentration at which net growth stops. Consider `COc1ccc2c(c1)OC(N(C(C)=O)C(C)=O)=C(C#N)C2c1ccc(F)cc1` (stereo unspecified), for which the GI50 in the assay on 786-0 renal was 3.52 µM; in the assay on EKVX NSCLC, 6.37 µM; in the assay with IGROV1 ovarian it was 2.82 µM; in the assay on M14 melanoma it was 0.482 µM; in the assay with NCI-H522 lung, 0.619 µM; in the assay with OVCAR-5 ovarian, 7.65 µM. Also, the GI50 in the assay with RXF 393 renal is 1.77 µM; with SF-268 CNS it was 9.47 µM; in the assay on SK-MEL-5 melanoma, 1.98 µM. The TGI is > 100 µM with 786-0 renal; > 100 µM with EKVX NSCLC; > 100 µM with IGROV1 ovarian; > 100 µM with M14 melanoma; 18.3 µM in the assay with NCI-H522 lung; > 100 µM with OVCAR-5 ovarian. Also, the results for the concentration for total growth inhibition (TGI) in the assay on RXF 393 renal, in the assay with SF-268 CNS and in the assay on SK-MEL-5 melanoma were 9.63 µM, > 100 µM and 18.3 µM, respectively.

`CSc1nc2c(nc(N)n2C2OCC(O)C(O)C2O)c(=O)n1C` (stereo unspecified): the TGI in the assay on 786-0 renal, in the assay with EKVX NSCLC, with IGROV1 ovarian, with K-562 leukemia, in the assay with M14 melanoma and in the assay with NCI-H522 lung was > 100 µM in each case. Further, the TGI in the assay with RXF 393 renal, in the assay on SF-268 CNS and in the assay on SK-MEL-5 melanoma was > 100 µM throughout.

Consider `Cn1nc(-c2ccccc2)c(C(=O)/C=C/c2ccccc2)c(N2CCOCC2)c1=O`, for which the total growth inhibition concentration (TGI) is 32.4 µM in the assay with 786-0 renal; 52.9 µM in the assay with IGROV1 ovarian; 56 µM with K-562 leukemia; 52.6 µM with M14 melanoma; 29.9 µM in the assay with NCI-H522 lung; 25.9 µM in the assay with RXF 393 renal. Also, the TGI in the assay on SF-268 CNS is 32.6 µM; with SK-MEL-5 melanoma, 37.6 µM.

Regarding `Cc1cc(=O)oc2cc3c(cc12)Oc1ccccc1O3`, the TGI was > 100 µM in the assay on 786-0 renal; > 10 µM in the assay on EKVX NSCLC; > 100 µM with IGROV1 ovarian; > 10 µM with K-562 leukemia; > 100 µM with M14 melanoma; > 100 µM in the assay on OVCAR-5 ovarian. In addition, the TGI in the assay on RXF 393 renal, in the assay on SF-268 CNS and with SK-MEL-5 melanoma was > 100 µM each time.

Consider `CO/N=C(\C)c1ccc(Nc2cc(-c3ccccc3)nc3c(O)cccc23)cc1`, for which the GI50 with 786-0 renal is 16.3 µM; with EKVX NSCLC it was 15.9 µM; with IGROV1 ovarian, 13.5 µM; with K-562 leukemia it was 11.6 µM; in the assay on M14 melanoma, 14.6 µM; in the assay with NCI-H522 lung, 20.6 µM. Besides, the GI50 was 18.7 µM with OVCAR-5 ovarian, 14.2 µM in the assay on RXF 393 renal and 23.9 µM in the assay on SK-MEL-5 melanoma. Besides, the concentration for total growth inhibition (TGI) in the assay with 786-0 renal turned out to be 35.2 µM; with EKVX NSCLC, 41.7 µM; in the assay with IGROV1 ovarian, 45.2 µM; in the assay on K-562 leukemia, 60.4 µM; in the assay with M14 melanoma, 29.6 µM; with NCI-H522 lung, 62.1 µM. The concentration for total growth inhibition (TGI) in the assay with OVCAR-5 ovarian worked out at 33.4 µM; in the assay on RXF 393 renal it was 30 µM; in the assay with SK-MEL-5 melanoma, 91.4 µM.

As to `CC[C@H](CC#N)OC(=O)N[C@@H](C)c1cccc(NC(=O)Nc2ccc(-c3cnco3)c(OC)c2)c1`, the 50% growth inhibitory concentration (GI50) in the assay with 786-0 renal is 0.188 µM; in the assay on IGROV1 ovarian, 0.0514 µM; with K-562 leukemia, 0.0263 µM; with M14 melanoma, 0.0753 µM; with NCI-H522 lung it was 0.0731 µM; in the assay on OVCAR-5 ovarian, 0.623 µM. For the same molecule, the 50% growth inhibitory concentration (GI50) is 0.266 µM in the assay with RXF 393 renal, 0.074 µM in the assay with SF-268 CNS and 0.18 µM in the assay on SK-MEL-5 melanoma. The TGI in the assay with 786-0 renal is > 93 µM; with IGROV1 ovarian it was 24.2 µM; in the assay with K-562 leukemia it was > 52.6 µM; in the assay on M14 melanoma, 30.5 µM; with NCI-H522 lung it was 15.1 µM; in the assay with OVCAR-5 ovarian, > 84.5 µM. Further, the results for the TGI with RXF 393 renal, in the assay on SF-268 CNS and with SK-MEL-5 melanoma were > 22.9 µM, 51.3 µM and 16.4 µM, respectively.

Take `C=C(C)C(=O)O[C@H]1[C@H]2[C@H](OC(=O)[C@H]2C)[C@H](O)[C@@H](C)[C@@H]2C=CC(=O)[C@]21C`: the TGI with 786-0 renal amounted to 5.21 µM; in the assay on EKVX NSCLC, 14.8 µM; with IGROV1 ovarian, 7 µM; in the assay on M14 melanoma, 38.5 µM; in the assay on NCI-H522 lung, 2.68 µM; with OVCAR-5 ovarian it was 54 µM. Further, the TGI in the assay with RXF 393 renal came out at 4.13 µM; with SF-268 CNS, 12.6 µM; in the assay on SK-MEL-5 melanoma, 20.2 µM.

On to `COc1cccc(C(=O)C2C(=O)N(C)CCc3ccccc32)c1OC` (stereo unspecified), for which the TGI with 786-0 renal, in the assay on IGROV1 ovarian, in the assay with K-562 leukemia, in the assay on M14 melanoma, with NCI-H522 lung and with RXF 393 renal was > 100 µM in each case. The TGI in the assay with SK-MEL-5 melanoma is > 100 µM.

As for `COc1cc(/C=C/C(=O)c2sc(Nc3ccccc3)nc2C)ccc1O`, the TGI with 786-0 renal, with EKVX NSCLC, in the assay on IGROV1 ovarian, in the assay with K-562 leukemia, with NCI-H522 lung and in the assay on OVCAR-5 ovarian was > 100 µM each time. Also, the TGI in the assay on RXF 393 renal, in the assay on SF-268 CNS and with SK-MEL-5 melanoma was > 100 µM in each case.

Regarding `NNC(=O)CCC(=O)NC1C2CC3CC(C2)CC1C3` (stereo unspecified), the concentration for total growth inhibition (TGI) with 786-0 renal, with IGROV1 ovarian, with K-562 leukemia, in the assay with M14 melanoma, in the assay on NCI-H522 lung and in the assay with OVCAR-5 ovarian was > 100 µM in each case. In addition, the total growth inhibition concentration (TGI) with RXF 393 renal, in the assay with SF-268 CNS and in the assay with SK-MEL-5 melanoma was > 100 µM throughout.

In the case of `CC(=O)OCC1OC(n2ccc(=O)[nH]c2=O)C(OC(C)=O)C1OC(C)=O` (stereo unspecified), the GI50 in the assay with 786-0 renal, with EKVX NSCLC, in the assay on IGROV1 ovarian, in the assay on M14 melanoma, with NCI-H522 lung and in the assay on OVCAR-5 ovarian was > 100 µM in each case. The GI50 with RXF 393 renal, in the assay on SF-268 CNS and in the assay with SK-MEL-5 melanoma was > 100 µM in each case. Besides, the TGI in the assay on 786-0 renal, in the assay on EKVX NSCLC, in the assay with IGROV1 ovarian, in the assay on M14 melanoma, in the assay with NCI-H522 lung and in the assay with OVCAR-5 ovarian was > 100 µM throughout. For the same molecule, the TGI with RXF 393 renal, with SF-268 CNS and with SK-MEL-5 melanoma was > 100 µM each time.

`Cc1ccc(NC(=O)/C(=N\Nc2ccc([N+](=O)[O-])cc2[N+](=O)[O-])C2C(=O)NC(=O)NC2=O)cc1`: the TGI in the assay with 786-0 renal, in the assay with IGROV1 ovarian, in the assay with K-562 leukemia, in the assay on M14 melanoma, in the assay on NCI-H522 lung and in the assay with OVCAR-5 ovarian was > 100 µM throughout. Also, the total growth inhibition concentration (TGI) in the assay with RXF 393 renal, with SF-268 CNS and with SK-MEL-5 melanoma was > 100 µM each time.
